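Each compound was tested at five concentrations against cells in 96-well plates for 48 hours. GI50 = concentration required for 50% inhibition of growth. TGI: total growth inhibition.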
Legend:
Assay in all cases: DTP human tumour cell line panel, 48 h
CAKI-1 renal = tested on: CAKI-1 renal
HCT-15 colon = tested on: HCT-15 colon
SF-539 CNS = tested on: SF-539 CNS
SN12C renal = tested on: SN12C renal
ACHN renal = tested on: ACHN renal
SK-OV-3 ovarian = tested on: SK-OV-3 ovarian
NCI-H522 lung = tested on: NCI-H522 lung
OVCAR-8 ovarian = tested on: OVCAR-8 ovarian
EKVX NSCLC = tested on: EKVX NSCLC
786-0 renal = tested on: 786-0 renal

SMILES	TGI (CAKI-1 renal)	TGI (HCT-15 colon)	TGI (SF-539 CNS)	TGI (SN12C renal)	TGI (ACHN renal)	TGI (SK-OV-3 ovarian)	TGI (NCI-H522 lung)	TGI (OVCAR-8 ovarian)	TGI (EKVX NSCLC)	TGI (786-0 renal)	GI50 (CAKI-1 renal)	GI50 (HCT-15 colon)	GI50 (SF-539 CNS)	GI50 (SN12C renal)	GI50 (ACHN renal)	GI50 (SK-OV-3 ovarian)	GI50 (NCI-H522 lung)	GI50 (OVCAR-8 ovarian)	GI50 (EKVX NSCLC)	GI50 (786-0 renal)
O=C(/C=C/c1ccccc1)CCc1c(O)c2ccccc2oc1=O	> 100 µM	> 100 µM	> 100 µM	> 100 µM	> 100 µM	> 100 µM	> 100 µM	> 100 µM	> 100 µM	> 100 µM										
COc1cc(C2(C)SCCCS2)c(I)c(OC)c1OC	> 100 µM	> 100 µM	> 100 µM	> 100 µM	> 100 µM	> 100 µM	> 100 µM	> 100 µM	> 100 µM	> 100 µM										
Cc1ccc(C)c2c1CCc1cc3ccccc3nc1-2	> 100 µM	> 100 µM	> 100 µM	> 100 µM	> 100 µM	> 100 µM	> 100 µM	> 100 µM	> 100 µM	> 100 µM										
c1ccc(-c2cnc3nc4ccccc4nc3n2)cc1	3.53 µM	> 100 µM	15.8 µM	31.5 µM	15.4 µM	9.12 µM	19 µM	6.8 µM	16.5 µM	> 100 µM										
O=S1(=O)CC(Br)C(Br)C1 (stereo unspecified)	11.8 µM	7.24 µM	54.4 µM	17.4 µM	6.72 µM	90 µM	3.86 µM	18.4 µM	49.8 µM	25.5 µM	3.12 µM	2.64 µM	13.6 µM	4.07 µM	2.61 µM	23.2 µM	1.99 µM	4.85 µM	18.5 µM	10.5 µM
COc1cc(CC2CC(c3ccc4c(c3)OCO4)OC2=O)cc(OC)c1OC (stereo unspecified)	> 100 µM	> 100 µM	> 100 µM	> 100 µM	> 100 µM	> 100 µM		> 100 µM	> 100 µM	> 100 µM										
C[C@@H](c1ccccc1)N(CC#N)C1CCC[C@H]1O (stereo partly specified)		> 100 µM	> 100 µM	> 100 µM	> 100 µM	> 100 µM	> 100 µM	> 100 µM	> 100 µM	> 100 µM										
COC(=O)/C(=N/O)C(C(=O)OC)C(=O)C(=O)Nc1c(Cl)cc(C)cc1S(=O)(=O)O (stereo unspecified)	> 100 µM	> 100 µM	> 100 µM	> 100 µM	> 100 µM	> 100 µM	> 100 µM	> 100 µM	> 100 µM	> 100 µM										
C/C=C/C(=O)[O-].N.N.N.N.N.[Co+3].[O-][Cl+3]([O-])([O-])[O-]		> 100 µM	> 100 µM	> 100 µM	> 100 µM	> 100 µM	> 100 µM	> 100 µM	> 100 µM	> 100 µM		> 100 µM	> 100 µM	> 100 µM	> 100 µM	> 100 µM	> 100 µM	> 100 µM	> 100 µM	> 100 µM
COc1cccc2ccc3c(c12)C(=O)OC31CCc2c(C)cccc21 (stereo unspecified)	> 46.4 µM	> 46.4 µM	> 100 µM	> 46.4 µM	40.5 µM	> 46.4 µM	> 31.6 µM	> 46.4 µM	> 46.4 µM	> 46.4 µM										
N#C/C(=C\c1cccnc1)c1nc2ccccc2o1	> 100 µM	> 100 µM	> 100 µM	> 100 µM	> 100 µM	> 100 µM	> 100 µM	> 100 µM	> 100 µM	> 100 µM	> 100 µM	> 100 µM	> 100 µM	> 100 µM	> 100 µM	> 100 µM	> 100 µM	> 100 µM	> 100 µM	> 100 µM
N#Cc1ccc2c(c1)C(=O)c1c-2n(CCCN=[N+]=[N-])c(=O)c2cc([N+](=O)[O-])ccc12	> 50 µM	> 50 µM	> 50 µM	> 50 µM	> 50 µM	> 50 µM	> 50 µM	> 50 µM	> 50 µM	> 50 µM	9.86 µM	> 50 µM	> 50 µM	47.2 µM	5.28 µM	> 50 µM	37.4 µM	> 50 µM	> 50 µM	23 µM
O=C(O)c1oc2cccc3c2c1CCC3		> 100 µM	> 100 µM	> 100 µM	> 100 µM	> 100 µM	> 100 µM	> 100 µM	> 100 µM	> 100 µM										
C=C1C[C@@H]2[C@H](CC[C@]3(C)C(=O)CC[C@@H]23)[C@@]2(C)C=CC(=O)C=C12	> 100 µM	34.3 µM	74.4 µM	> 63.5 µM	54.3 µM	> 100 µM	> 38.8 µM	> 24 µM	> 100 µM	> 100 µM	> 55.9 µM	10 µM	25.2 µM	21 µM	23.5 µM	39.1 µM	8.79 µM	6.93 µM	> 59.2 µM	36.9 µM
COc1cc(/C=C/c2cc(/C=C/c3ccc(O)c(OC)c3)[nH]c(=O)n2)ccc1O	> 100 µM	> 100 µM	> 100 µM	> 100 µM	> 100 µM	4.89 µM	7.95 µM	12.7 µM	72.8 µM	33 µM	3.38 µM	5.43 µM	3.87 µM	4.38 µM	8.84 µM	2.33 µM	2.57 µM	3.01 µM	3.89 µM	2.73 µM
CC(=O)O[C@H](C[C@H](C(C)C)N(C)C(=O)[C@@H](NC(=O)[C@H]1CCCCN1C)C(C)(C)C)c1nc(C(=O)N[C@@H](Cc2ccccc2)C[C@H](C)C(=O)O)cs1	> 25 µM	> 25 µM	0.0046 µM	> 25 µM	> 25 µM	> 25 µM	0.00847 µM	> 25 µM	> 25 µM	> 25 µM	< 0.0025 µM	< 0.0025 µM	< 0.0025 µM	< 0.0025 µM	< 0.0025 µM	< 0.0025 µM	< 0.0025 µM	< 0.0025 µM	0.00462 µM	< 0.0025 µM

SMILES	TGI (CAKI-1 renal)	TGI (HCT-15 colon)	TGI (SF-539 CNS)	TGI (SN12C renal)	TGI (ACHN renal)	TGI (SK-OV-3 ovarian)	TGI (NCI-H522 lung)	TGI (OVCAR-8 ovarian)	TGI (EKVX NSCLC)	TGI (786-0 renal)	GI50 (CAKI-1 renal)	GI50 (HCT-15 colon)	GI50 (SF-539 CNS)	GI50 (SN12C renal)	GI50 (ACHN renal)	GI50 (SK-OV-3 ovarian)	GI50 (NCI-H522 lung)	GI50 (OVCAR-8 ovarian)	GI50 (EKVX NSCLC)	GI50 (786-0 renal)
COc1cc(/C=C\c2cc(OC)c(OC)c(OC)c2)cc(NS(=O)(=O)c2cccc(Cl)c2)c1OC	27.8 µM	> 100 µM		> 100 µM	> 100 µM	> 100 µM	88.2 µM	> 100 µM	> 100 µM	> 100 µM	0.0527 µM	0.146 µM		0.223 µM	0.109 µM	1.15 µM	0.0373 µM	0.429 µM	0.264 µM	0.0601 µM
N=C1C(c2nc(-c3ccc(Br)cc3)cs2)=C(O)CN1CC1CCCO1 (stereo unspecified)	> 100 µM	> 100 µM	> 100 µM	> 100 µM	> 100 µM	> 100 µM			> 100 µM	> 100 µM	> 100 µM	> 100 µM	> 100 µM	> 100 µM	> 100 µM	> 100 µM			> 100 µM	> 100 µM
CN(C)CCNc1c2c(c(NCCN(C)C)c3c(CO)c[nH]c13)C(=O)c1ccccc1C2=O	19.2 µM	10.6 µM	4.72 µM	8.33 µM	9.96 µM	20.8 µM	24.1 µM	> 39.4 µM	9.34 µM	16.2 µM	4.64 µM	1.96 µM	1.96 µM	1.25 µM	1.92 µM	4.64 µM	4.6 µM	8.53 µM	3.05 µM	3.38 µM
C(#Cc1ccccc1C#Cc1ccccn1)c1ccccn1	42.5 µM	25 µM	40.2 µM	35.1 µM	29.6 µM	37.9 µM	36.3 µM	40.1 µM	40.2 µM	> 100 µM	18.3 µM	11.2 µM	21.3 µM	18.1 µM	15.6 µM	16.5 µM	16.3 µM	17.8 µM	20.5 µM	18.3 µM
COC(=O)C1=C(c2cc(OC)c(OC)c(OC)c2)O[C@H](c2ccc3c(c2)OCO3)[C@H]1COC(C)=O	> 100 µM	> 100 µM	91.1 µM	96.2 µM	92.1 µM	52.1 µM		> 100 µM	> 100 µM	78.4 µM										
CCCCCCCCCCCCCCC(O)C1CCC(C(O)CCC(O)CCCCCC(O)CC2=CC(C)OC2=O)O1 (stereo unspecified)	20.8 µM	5.25 µM	17.8 µM	9.24 µM		15 µM	7.4 µM	14.8 µM	16.2 µM	8.87 µM										
C[C@]12CC[C@H]3[C@@H](CCC4=C[C@@H](OC5OCC(OC6OC(CO)C(O)C(O)C6O)C(O)C5O)CC[C@@]43C=O)[C@@]1(O)CCC2C1=CC(=O)OC1 (stereo partly specified)	1.62 µM	1.76 µM	1.68 µM	2.01 µM	2.25 µM	3.75 µM	2.88 µM	2.76 µM	1.64 µM	1.23 µM										
COc1ccc(N2C(=O)C(N3C(=O)C=CC3=O)C2C=O)cc1 (stereo unspecified)	> 100 µM	> 100 µM	> 100 µM	> 100 µM	> 100 µM	> 100 µM	> 100 µM	> 100 µM	> 100 µM	> 100 µM										
CC[C@H](C)[C@H](NC(=O)c1nccn1C)C(=O)N(C)[C@H](C[C@@H](OC(C)=O)c1nc(C(=O)N[C@@H](Cc2ccccc2)C[C@H](C)C(=O)OC)cs1)C(C)C		> 33.3 µM	1.97 µM	> 33.3 µM	> 33.3 µM	> 33.3 µM	1.56 µM	> 33.3 µM	> 33.3 µM	14.5 µM		0.999 µM	0.702 µM	2.41 µM	2.06 µM	1.72 µM	0.351 µM	1.44 µM	1.72 µM	1.17 µM
S=c1[nH]nc(SCc2ccccc2Cl)c2[nH]cnc12	> 100 µM	> 100 µM	> 100 µM	> 100 µM	> 100 µM	> 100 µM	> 100 µM	> 100 µM	> 100 µM	> 100 µM										
CC(C)(O)CCC(O)C(C)(O)C1CCC2(O)C3=CC(=O)C4(O)CC(O)C(O)CC4(C)C3CCC12C (stereo unspecified) (tested in a mixture with another compound)	> 100 µM	> 100 µM	> 100 µM	> 100 µM	> 100 µM	> 100 µM	> 100 µM	> 100 µM	> 100 µM	> 100 µM										
COC(=O)C12C3C4C1C1C2C3C41C(=O)N(C(C)C)C(C)C (stereo unspecified)		> 100 µM	> 100 µM	> 100 µM	> 100 µM	> 100 µM	> 100 µM	> 100 µM	> 100 µM	> 100 µM										
CC(=O)NS(=O)(=O)c1ccc(-n2nc(-c3ccccc3)cc2C2=CC(=O)C=CC2=O)cc1	> 100 µM	> 100 µM		> 100 µM	> 100 µM		> 100 µM	> 100 µM	> 100 µM	> 100 µM	> 100 µM	> 100 µM		> 100 µM	> 100 µM		> 100 µM	> 100 µM	> 100 µM	54.4 µM
COc1cc2c3c(c1OC)Oc1ccc(cc1)CC1c4c(cc(OC)c(OC)c4Oc4ccc(cc4)CC3N(C)CC2)CCN1C (stereo unspecified)	> 100 µM		28 µM	49.7 µM	> 100 µM	84.1 µM	25.8 µM	60 µM	> 100 µM	53 µM										
CC1=NN(C(=O)c2cc(Cl)cc([N+](=O)[O-])c2)C(=O)C1N=Nc1ccccc1C(=O)O (stereo unspecified)	> 100 µM		> 100 µM	> 100 µM	> 100 µM	> 100 µM	> 100 µM	> 100 µM	> 100 µM	> 100 µM										
O=C(c1ccccc1)c1ccccc1C(=O)c1ccccc1	70.6 µM	> 100 µM	> 100 µM	> 100 µM	> 100 µM	> 100 µM		> 100 µM	> 100 µM	> 100 µM	19.4 µM	50 µM	77.5 µM	> 100 µM	45.7 µM	50.3 µM		34.5 µM	28.6 µM	50.6 µM
